Laboratory results published in the CheMixHub ionic liquid set.

Test: xn = mol fraction of the nth substance listed

O=C(O)c1cccnc1 + CCCC[n+]1ccn(C)c1.[Br-] + O
viscosity [mPa·s], 100 kPa
Conditions	293.15 K	298.15 K	303.15 K	308.15 K	313.15 K	318.15 K
x1 = 0.0002684, x2 = 0	1.015	0.903	0.807	0.734	0.666	0.61
x1 = 0.0002711, x2 = 0.0008999	1.035	0.92	0.824	0.754	0.677	0.62
x1 = 0.0002757, x2 = 0.001798	1.06	0.94	0.842	0.759	0.69	0.632
x1 = 0.0002802, x2 = 0.002695	1.071	1.002	0.906	0.796	0.75	0.681
x1 = 0.0005421, x2 = 0	1.018	0.905	0.809	0.737	0.669	0.614
x1 = 0.0005475, x2 = 0.0008997	1.039	0.923	0.827	0.756	0.678	0.621
x1 = 0.0005493, x2 = 0.001798	1.063	0.942	0.843	0.761	0.691	0.633
x1 = 0.0005547, x2 = 0.002694	1.074	1.004	0.908	0.797	0.751	0.682
x1 = 0.0008084, x2 = 0	1.021	0.908	0.812	0.742	0.673	0.617
x1 = 0.0008166, x2 = 0.0008994	1.042	0.925	0.829	0.758	0.68	0.622
x1 = 0.0008283, x2 = 0.001797	1.066	0.945	0.845	0.763	0.693	0.634
x1 = 0.0008364, x2 = 0.002693	1.077	1.007	0.91	0.799	0.753	0.683
x1 = 0.001084, x2 = 0	1.024	0.911	0.814	0.746	0.677	0.62
x1 = 0.001093, x2 = 0.0008992	1.044	0.927	0.83	0.759	0.681	0.624
x1 = 0.001104, x2 = 0.001797	1.069	0.947	0.848	0.765	0.694	0.635
x1 = 0.001114, x2 = 0.002693	1.08	1.009	0.912	0.801	0.754	0.684
x1 = 0.001351, x2 = 0	1.027	0.913	0.816	0.75	0.681	0.624
x1 = 0.001363, x2 = 0.000899	1.047	0.93	0.833	0.762	0.683	0.625
x1 = 0.001377, x2 = 0.001796	1.071	0.95	0.85	0.767	0.696	0.636
x1 = 0.00139, x2 = 0.002692	1.083	1.012	0.915	0.803	0.756	0.686
x1 = 0.001619, x2 = 0	1.03	0.916	0.819	0.754	0.685	0.628
x1 = 0.001635, x2 = 0.0008987	1.05	0.932	0.835	0.763	0.684	0.619
x1 = 0.001652, x2 = 0.001796	1.074	0.952	0.852	0.768	0.697	0.638
x1 = 0.001666, x2 = 0.002691	1.086	1.014	0.917	0.805	0.757	0.687

CCCC[n+]1ccn(C)c1.CS(=O)(=O)[O-] + CCCC[n+]1ccn(C)c1.[Cl-]
Conditions	viscosity [mPa·s]
353.15 K, 102 kPa, x1 = 0.2	98

CCCCn1cc[n+](C)c1C.O=S(=O)([N-]S(=O)(=O)C(F)(F)F)C(F)(F)F + CCCC[n+]1ccn(C)c1C.F[B-](F)(F)F
Conditions	electrical conductivity [S/m]
358.15 K, 100 kPa, x1 = 1	1.71

CS(=O)(=O)[O-].C[N+](C)(CCO)CCO + CCCO
viscosity [mPa·s], 101 kPa
Conditions	x1 = 0.0999	x1 = 0.1996	x1 = 0.2999	x1 = 0.3987	x1 = 0.498	x1 = 0.5975	x1 = 0.6972	x1 = 0.7982	x1 = 0.8978	x1 = 1
298.15 K	4.97	11.64	25.5	50.9	97.5	196	337	576	960	1495
303.15 K	4.34	9.88	20.9	40.6	75.5	149	248	414	676	1021
308.15 K	3.8	8.45	17.4	32.9	59.6	114.8	187	304	484	716
313.15 K	3.36	7.29	14.66	27	47.7	79.8	142.8	228	355	513
318.15 K	2.98	6.35	12.49	22.5	38.8	63.7	111.4	174	267	378
323.15 K	2.66	5.56	10.92	18.9	32	51.5	79.8	135.8	203	282

COP(=O)([O-])OC.C[N+]1(CCO)CCCC1 + CCO
100 kPa
Conditions	viscosity [mPa·s]
293.15 K, x1 = 0.1077	4.74
293.15 K, x1 = 0.2079	12.31
293.15 K, x1 = 0.3084	32
293.15 K, x1 = 0.4033	55.9
293.15 K, x1 = 0.5077	123
293.15 K, x1 = 0.7053	402
298.15 K, x1 = 0.7053	295
298.15 K, x1 = 0.8055	478
303.15 K, x1 = 0.0561	2.02
303.15 K, x1 = 0.2079	9.66
303.15 K, x1 = 0.3084	23.7
303.15 K, x1 = 0.5077	78.2
308.15 K, x1 = 0.0561	1.73
308.15 K, x1 = 0.1077	3.54
308.15 K, x1 = 0.1523	5.76
308.15 K, x1 = 0.3084	21.1
313.15 K, x1 = 0.9053	277
318.15 K, x1 = 0.2079	7.02
318.15 K, x1 = 0.2537	10.45
318.15 K, x1 = 0.4033	26.5
318.15 K, x1 = 0.5077	44.7
318.15 K, x1 = 1	273
323.15 K, x1 = 0.5077	38.1
323.15 K, x1 = 0.6042	60
328.15 K, x1 = 0.2079	5.83
328.15 K, x1 = 0.3084	12.98
328.15 K, x1 = 0.6042	50.4
333.15 K, x1 = 0.4033	17.9
333.15 K, x1 = 0.7053	54.1
338.15 K, x1 = 0.4033	16.24
338.15 K, x1 = 0.5077	23.8
338.15 K, x1 = 0.6042	35.9
338.15 K, x1 = 0.8055	60.9
